Source: patent US20240156790A1, “COMPOUNDS, COMPOSITIONS, AND METHODS FOR MODULATING FERROPTOSIS AND TREATING EXCITOTOXIC DISORDERS” (THE TRUSTEES OF COLUMBIA UNIVERSITY IN THE CITY OF NEW YORK, priority 2018, published 2024)
Where two headings read alike, the source gives them in different places.

Experiments:
[1] = Plasma Stability Assay (Examples 6 and 8); assay type: in vitro ADME, mouse; details: for half-life at 20 µM: mouse, plasma diluted 1:1 in phosphate buffer, pH 7.4, experiment I, read-out: t1/2 I; for half-life at 20 µM / t1/2 II: plasma half-life; for t1/2 II: experiment II
Method: (§1) Mouse plasma (GeneTex) was centrifuged at 3000 rpm for 10 min at 10° C. with the resulting supernatant withdrawn and diluted 1:1 in phosphate buffer pH 7.4. To a 96-well polypropylene plate was added 50% mouse plasma phosphate buffer (195 μL). A stock solution of analog in DMSO (0.8 μL. 5 mM) or fer-1 (positive control) was added to a separate well and the components were warmed to 37° C. for 5 min with gentle agitation. The reaction was initiated with the addition of analog to plasma, and the reaction kept at 37° C. for gentle agitation for the duration of the assay. At selected time points, aliquots (15 μL) were withdrawn from the plate and quenched upon addition to cold methanol (60 μL), containing an internal standard (5 μM) in a separate 96-well polypropylene plate. At the completion of the final time-point, the samples were centrifuged at 4,000 rpm for 5 min at 4° C. The supernatant (40 μL) was withdrawn and transferred to a sample vial with insert. The samples were analyzed by LC-MS. LC-MS analysis was performed on a platform comprising a Thermo Scientific Dionex Ultimate 3000 and a Bruker amaZon SL equipped with an electrospray ionization source controlled by Bruker Hystar 3.2. Chromatographic separation was performed by injecting 5 μL of the sample onto an Agilent Eclipse Plus C18 column (2.1×50 mm, 3.5 μm) maintained at 20° C. The flow rate was maintained at 400 μL/min. The initial flow conditions were 80% solvent A (water containing 0.1% acetic acid) and 20% solvent B (methanol containing 0.1% acetic acid). Solvent B was raised to 80% over 0.50 min by 1.50 min. Solvent B was raised to 100% by 5.00 min and held there for 3.25 min. […] All analogs were detected in positive mode as [M+H]*. The percent compound remaining at each time-point was calculated as the ratio of the integrated compound peak over the internal standard peak and standardized to the t=0 time-point. Values were plotted in GraphPad Prism 9 and fit with a one phase decay.
as §1, with “3000 rpm (1053 g) for 10” for “3000 rpm for 10”, “4,000 rpm (1872 g) for 5” for “4,000 rpm for 5”, “phase decay. […]” for “phase decay.”

[2] = test system: N27 rat dopaminergic cells; experiment: Suppression of ferroptosis induced by RSL3 in N27 cells (CellTiter-Glo viability); assay type: cell-based
[3] = Solubility in the in vivo injection vehicle; assay type: physicochemical; details: solution prepared for in vivo injection, no precipitation observed
Method: To achieve the 20 mg/kg dose for each compound, mice were injected with a 2 mg/mL solution in the vehicle described above.

[4] = Rattus norvegicus, N27, 24 h, Table 13, 20 nM RSL3, treated for 24 hours^d, read-out: IC50
[5] = Rattus norvegicus, N27, 24 h, 20 nM RSL3, 24 hours, separate experiment I, read-out: IC50 I
[6] = Rattus norvegicus, N27, 24 h, 20 nM RSL3, 24 hours, separate experiment II, read-out: IC50 II
[7] = Rattus norvegicus, N27, 24 h, 20 nM RSL3, 24 hours, separate experiment III, read-out: IC50 III
[8] = Rattus norvegicus, N27, 24 h, Table 3, ^d 24 hr treatment, 1,000 cells/well seeded, read-out: IC50
[9] = Rattus norvegicus, N27, 24 h, RSL3 20 nM, 24 hours of treatment, read-out: IC50
[10] = Rattus norvegicus, N27, Table 7, value used for Cmax/IC50, read-out: IC50

| Structure (SMILES) | stability in mouse plasma, in words [1] | time to full degradation in mouse plasma [1] | IC50 ([2]; Rattus norvegicus, N27, Table 3, ^d 24 hr treatment, 1,000 cells/well seeded, read-out: IC50) | IC50 ([2]; Rattus norvegicus, N27, Table 3, ^e 48 hr treatment, 1,000 cells/well seeded, read-out: IC50) | IC50 [2, 4] | half-life at 20 µM [1] | t1/2 II [1] | potency relative to fer-1, in words ([2]; 20 nM RSL3) | IC50 [2, 5] | IC50 [2, 6] | IC50 [2, 7] | IC50 [2, 8] | IC50 [2, 9] | IC50 [2, 10] | Concentration (mM) [3] | Concentration (mg/mL) [3] | EC50 ([2]; Rattus norvegicus, N27, text b573) |
| --- | --- | --- | --- | --- | --- | --- | --- | --- | --- | --- | --- | --- | --- | --- | --- | --- | --- |
| CCOC(=O)c1ccc(NC2CCCCC2)c(N)c1 [Fer-1, Ferrostatin-1, reference compound] | rapidly degraded in mouse plasma | less than 15 min | 3.2 nM | 12.5 nM | – | – | – | – | – | – | – | – | – | – | – | – | – |
| Cc1noc(-c2ccc(NC3CCCCC3)c(NC3CCCCC3)c2)n1 [PHB4082, N1,N2-dicyclohexyl-4-(3-methyl-1,2,4-oxadiazol-5-yl)benzene-1,2-diamine] | – | – | – | – | 2.6 nM | – | – | – | – | – | – | – | – | – | – | – | – |
| Cc1noc(-c2cnc(NC3CCCCC3)c(NC3CCCCC3)c2)n1 [TH-2-31, N^2,N^3-dicyclohexyl-5-(3-methyl-1,2,4-oxadiazol-5-yl)pyridine-2,3-diamine] | not metabolized in mouse plasma | – | – | – | 3.4 nM | > 4 h | >4 h | less potent than fer-1 | 2.6 nM | 1.4 nM | 6.1 nM | 3.4 nM | < 10 nM | 3.37 nM | 5.6 mM | 2 mg/mL | – |
| CCC(CC)Nc1cc(-c2nc(C)no2)cnc1NC1CCCCC1 [TH-4-55-2, N^2-cyclohexyl-5-(3-methyl-1,2,4-oxadiazol-5-yl)-N^3-(pentan-3-yl)pyridine-2,3-diamine] | not metabolized in mouse plasma | – | – | – | 2.2 nM | > 4 h | >4 h | more potent than fer-1 | 0.8 nM | 1 nM | 4.9 nM | 2.2 nM | < 10 nM | 2.23 nM | 5.8 mM | 2 mg/mL | – |
| Cc1noc(-c2cnc(NC3CCCC3)c(NC3CCCC3)c2)n1 [TH-4-67, N^2,N^3-dicyclopentyl-5-(3-methyl-1,2,4-oxadiazol-5-yl)pyridine-2,3-diamine] | not metabolized in mouse plasma | – | – | – | 2.1 nM | > 4 h | >4 h | more potent than fer-1 | 1.5 nM | 1.4 nM | 3.4 nM | 2.1 nM | – | 2.1 nM | 6.1 mM | 2 mg/mL | 2 nM |
